Experimental data: ChEMBL document CHEMBL1201862, “PubChem BioAssay data set” (2004)
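Where inhibition never reached the appropriate level, the endpoint shown equals the highest concentration tested. Otherwise, values were interpolated linearly from a five-concentration, 48-hour dose response in 96-well plates. GI50 is the concentration that inhibits growth by half.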 Activity calls are given as the source filed them. Cut-off read from the data, not from the text of the source: active = GI50 up to about 1.1 µM and inactive = higher.

What was measured:
Experiment in all cases: DTP human tumour cell line panel, 48 h
SF-268 = system: SF-268
A498 = system: A498
KM12 = system: KM12
U-251 = system: U-251
MDA-MB-435 = system: MDA-MB-435
MDA-MB-231 = system: MDA-MB-231
SK-MEL-2 = system: SK-MEL-2
M14 = system: M14
EKVX = system: EKVX
OVCAR-8 = system: OVCAR-8
NCI-H226 = system: NCI-H226
MOLT-4 = system: MOLT-4
CAKI-1 = system: CAKI-1
TK-10 = system: TK-10
OVCAR-4 = system: OVCAR-4
NCI-H23 = system: NCI-H23
HOP-92 = system: HOP-92
HT-29 = system: HT-29
786-0 = system: 786-0
MCF7 = system: MCF7

Compound	GI50 (SF-268)	GI50 (A498)	GI50 (KM12)	GI50 (U-251)	GI50 (MDA-MB-435)	GI50 (MDA-MB-231)	GI50 (SK-MEL-2)	GI50 (M14)	GI50 (EKVX)	GI50 (OVCAR-8)	GI50 (NCI-H226)	GI50 (MOLT-4)	GI50 (CAKI-1)	GI50 (TK-10)	GI50 (OVCAR-4)	GI50 (NCI-H23)	GI50 (HOP-92)	GI50 (HT-29)	GI50 (786-0)	GI50 (MCF7)
COc1ccc(/C=C2\N/C(=N/N)N=C2Cl)cc1	> 100 µM (inactive)	> 100 µM (inactive)	> 100 µM (inactive)	> 100 µM (inactive)	> 100 µM (inactive)	> 100 µM (inactive)	> 100 µM (inactive)	> 100 µM (inactive)	> 100 µM (inactive)	> 100 µM (inactive)	> 100 µM (inactive)	> 100 µM (inactive)	> 100 µM (inactive)	> 100 µM (inactive)	> 100 µM (inactive)	> 100 µM (inactive)	> 100 µM (inactive)	> 100 µM (inactive)	> 100 µM (inactive)	> 100 µM (inactive)
C[C@@H]1C[C@H](O)[C@]2(O)O[C@@H]3C[C@@]4(C=O)[C@@H](CC[C@@H]5[C@@H]4CC[C@]4(C)[C@@H](C6=CC(=O)OC6)CC[C@]54O)C[C@H]3O[C@@H]2O1 [CALOTROPIN]	0.0406 µM (active)	0.0531 µM (active)	0.0809 µM (active)	0.034 µM (active)	0.0675 µM (active)	0.221 µM (active)	0.0436 µM (active)	0.065 µM (active)	0.0178 µM (active)	0.0348 µM (active)	0.0815 µM (active)	0.0163 µM (active)	0.023 µM (active)	0.0254 µM (active)	0.0179 µM (active)	0.0188 µM (active)	0.0545 µM (active)	0.0425 µM (active)	0.0156 µM (active)	0.0238 µM (active)
